In US20240280493A1, “CELLULAR SENSORS BASED ON SURFACE-ENHANCED RAMAN SCATTERING AND APPLICATION THEREOF” (CHINA PHARMACEUTICAL UNIVERSITY, priority 2022, published 2024):

Test system: γH2AX
Experiment: Impurity genotoxicity assessment with the SERS cell-based sensor (L02 cells, Anti γH2AX@GPMT probe), fold of induction of γH2AX
Details: 24 h incubation, MMS 50 μg/ml, SA 50 μg/ml, 5-Fu 0.1 μg/ml, NDEA 500 μg/ml, FI > 1.5 judged genotoxic
Method: A human liver cell line L02 is cultured in DMEM containing 10% fetal calf serum, and put in a 37° C. incubator containing 5% CO2, and a sterile operation is performed in an entire process. When the cells grow to a logarithmic phase, L02 is inoculated into a 24-well plate containing a cell slide according to a density of 5000 cells/well, after being attached to a wall, a culture medium is replaced by a SERS probe culture medium with a concentration being 0.05 nM, and incubation is performed for 4 h.
The cell-based sensor culture medium is replaced by a culture medium containing impurities of different concentrations, continuous incubation is performed for 24 h, then the slide is taken out and put in a confocal inverted microscope bright and dark field imaging Raman spectrometer to be tested, the Raman signals of the test group and the control group are compared, and the impurity genotoxicity is assessed.
Methyl methanesulfonate (MMS), a salicylic acid (SA), 5-fluorouracil (5-Fu) and N-nitrosodiethylamine (NDEA) are selected respectively as genotoxic impurities of different structure types to be tested. […]

| Compound | FI value (fold of induction, concentration ratio of effector molecules of test group and control group) |
| --- | --- |
| O=C(O)c1ccccc1O [SA, salicylic acid] | 1.02 |
| CCN(CC)N=O [NDEA, N-nitrosodiethylamine] | 3.59 |
